Here are results for 65 compounds from patent publication US6713473B1, “Tricyclic compounds” (Meiji Seika Kaisha, Ltd., priority 1999, dated 2004).

The first test deals with T1, human Y5 receptor (Homo sapiens, UniProt Q15761).
T1 sequence (Q15761 1-445): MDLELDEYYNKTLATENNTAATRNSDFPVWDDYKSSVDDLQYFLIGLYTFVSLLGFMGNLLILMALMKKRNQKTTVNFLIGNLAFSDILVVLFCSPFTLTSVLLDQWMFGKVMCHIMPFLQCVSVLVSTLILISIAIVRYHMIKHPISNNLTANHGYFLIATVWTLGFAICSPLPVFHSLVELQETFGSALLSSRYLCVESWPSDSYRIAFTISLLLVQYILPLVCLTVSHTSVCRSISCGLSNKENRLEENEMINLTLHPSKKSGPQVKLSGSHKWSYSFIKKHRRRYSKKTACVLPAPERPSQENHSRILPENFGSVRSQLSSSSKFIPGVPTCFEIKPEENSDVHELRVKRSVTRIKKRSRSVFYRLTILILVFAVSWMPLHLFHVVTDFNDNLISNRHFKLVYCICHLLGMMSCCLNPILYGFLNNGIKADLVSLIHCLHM
Nature of the test: Y5 receptor binding inhibition test. The following applies: 2 h, read-out: % Inhibition ratio (10 μM).
Consider `CCn1c2ccccc2c2cc(C(=O)NCCCCCNS(=O)(=O)c3ccccc3)ccc21` [Compound 1-15], for which the inhibition at 10 µM was determined as 111%.
Same read-out and setting: under `CCn1c2ccccc2c2c(OC)c(C(=O)NCCCCCNS(=O)(=O)c3cccc4ccccc34)ccc21` [Compound 1-36] stands 92%.
Same read-out and setting: under `CCn1c2ccccc2c2cc(C(=O)NCCCCCNS(=O)(=O)c3cccc4ccccc34)c(O)cc21` [Compound 1-42] stands 74%; under `CC(=O)n1c2ccccc2c2cc(C(=O)NCCCCCNS(=O)(=O)c3cccc4ccccc34)ccc21` [Compound 1-54], 88%.
On to `CCn1c2ccccc2c2cc(C(=O)NCCCCCNC(=O)c3ccc4[nH]ccc4c3)ccc21` [Compound 1-25], for which the inhibition at 10 µM came out at 100%.
Still for that read-out and setting: under `CC(C)n1c2c(c3cc(NC(=O)N(C)CCc4ccncc4)cc(F)c31)CCCC2` [Compound 12-2] stands 96%; under `CC(C)n1c2c(c3cc(NC(=O)N(C)CCc4ccncc4)c(F)cc31)CCCC2` [Compound 12-1], 100%; under `COCCn1c2c(c3cc(C(=O)NCCOCCNS(=O)(=O)C(C)C)ccc31)CCCC2` [Compound 1-50], 89%.
On the same count and under the same terms, under `CC(C)S(=O)(=O)NCCCCCNC(=O)c1ccc2c(c1)c1c(n2CCO)CCCC1` [Compound 1-59] stands 93%; under `CCn1c2ccccc2c2cc(C(=O)NCCCCCNC(=O)C34CC5CC(CC(C5)C3)C4)ccc21` [Compound 1-20], 86%.
With `CCn1c2ccccc2c2cc(C(=O)NCCCCCCNS(=O)(=O)c3cccc4ccccc34)ccc21` [Compound 1-33], the inhibition at 10 µM is 82%.
The same measure, in the same setting: under `CCCS(=O)(=O)NCCCCCNC(=O)c1ccc2c(c1)c1ccccc1n2CC` [Compound 1-11] stands 103%; under `CCn1c2ccccc2c2cc(C(=O)NCCCCCNS(=O)(=O)c3cccnc3)ccc21` [Compound 1-57], 89%.
Regarding `CCn1c2ccccc2c2cc(NC(=O)COC)ccc21` [Compound 3-7], the inhibition at 10 µM amounted to 95%.
Turning to `CCn1c2ccccc2c2cc(NC(=O)CCNS(=O)(=O)c3cccc4ccccc34)ccc21` [Compound 1-4], the inhibition at 10 µM turned out to be 100%.
With `CC(C)n1c2c(c3cc(NC(=O)CCCCCNS(=O)(=O)c4cccc5ccccc45)ccc31)CCCC2` [Compound 1-9], the inhibition at 10 µM was found to be 100%.
For `CCn1c2ccccc2c2cc(C(=O)NCCCCCNS(C)(=O)=O)ccc21` [Compound 1-10], the inhibition at 10 µM is 99%.
On the same count and under the same terms, then `CCn1c2ccccc2c2cc(NC(=O)C3CC3)ccc21` [Compound 3-5], with 100%; and `CCn1c2ccccc2c2cc(NC(=O)CCCCCNC(=O)c3cccnc3)ccc21` [Compound 1-8], with 100%.
Take `COCCn1c2c(c3cc(C(=O)NCCOCCNS(C)(=O)=O)ccc31)CCCC2` [Compound 1-53]: the inhibition at 10 µM was found to be 66%.
`CCn1c2ccccc2c2cc(C(=O)NCCCCCNS(=O)(=O)c3cccc4cccnc34)ccc21` [Compound 1-16]: the inhibition at 10 µM is 94%.
Same read-out and setting: then `CCn1c2ccccc2c2cc(C(=O)NCCCCCNS(=O)(=O)N(C)C)ccc21` [Compound 1-24], with 98%.
On the same count and under the same terms, then `COCCn1c2ccccc2c2cc(C(=O)NCCCCCNS(=O)(=O)c3cccc4ccccc34)ccc21` [Compound 1-49], with 91%.
`CCn1c2ccccc2c2cc(C(=O)NCCCCCNS(=O)(=O)C(C)C)ccc21` [Compound 1-13]: the inhibition at 10 µM came to 109%.
On the same count and under the same terms, under `CCn1c2ccccc2c2cc(C(=O)NCCCCCNS(=O)(=O)c3cccc4ccccc34)ccc21` [Compound 1-32] stands 97%.
Still for that read-out and setting: then `CC(C)n1c2c(c3cc(NC(=S)N(C)CCc4ccncc4)ccc31)CCCC2` [Compound 12-3], with 97%.
The same measure, in the same setting: under `CCn1c2ccccc2c2cc(C(=O)NCCCCCNC(=O)C3CCCCC3)ccc21` [Compound 1-19] stands 84%.
As to `CCn1c2ccccc2c2cc(NC(=O)CCCNS(=O)(=O)c3cccc4ccccc34)ccc21` [Compound 1-5], the inhibition at 10 µM turned out to be 98%.
On the same count and under the same terms, under `CCOc1c(C(=O)NCCCCCNS(=O)(=O)c2cccc3ccccc23)ccc2c1c1ccccc1n2CC` [Compound 1-39] stands 80%.
With `CCn1c2c(c3cc(C(=O)NCCOCCNS(=O)(=O)C(C)C)ccc31)CCCC2` [Compound 1-52], the inhibition at 10 µM worked out at 88%.
Regarding `CCn1c2c(c3cc(NC(C)=O)ccc31)CCC2` [Compound 3-3], the inhibition at 10 µM turned out to be 89%.
Same read-out and setting: under `CCn1c2ccccc2c2c(O)c(C(=O)NCCCCCNS(=O)(=O)c3cccc4ccccc34)ccc21` [Compound 1-41] stands 52%.
The same measure, in the same setting: then `CCn1c2ccccc2c2cc(C(=O)NCCCCCNS(=O)(=O)c3ccc4ccccc4c3)ccc21` [Compound 1-14], with 106%; and `CCn1c2ccccc2c2cc(C(=O)NCCCCCNC(=O)c3ccccc3)ccc21` [Compound 1-21], with 97%.

The test is the same for the next values; noted with them: test compound 10 μM; 3H-NPY; membrane of insect cells expressing human Y5 receptor; 4° C., 2 hours; relative to Y5 specific binding in solvent group.
Turning to `COCCCCN(C)C(=O)Nc1ccc2c(c1)c1c(n2C(C)C)CCCC1` [Compound 5-7], the “% Inhibition ratio (10 μM)” value is reported as 100%.
The same measure, in the same setting: under `CC(C)n1c2c(c3cc(NC(=O)N4CCCC4)ccc31)CCCC2` [Compound 7-1] stands 92%; under `CC(C)n1c2c(c3cc(NC(=O)N4CCC(O)C4)ccc31)CCCC2` (centres unmarked) [Compound 7-4], 90%.
Take `CC(C)n1c2c(c3cc(NC(=O)N(C)CCc4ccccn4)ccc31)CCCCC2` [Compound 11-2]: the “% Inhibition ratio (10 μM)” value is recorded as 96%.
With `CC(C)n1c2c(c3cc(NC(=O)N(C)CCc4ccncc4)ccc31)CCC2` [Compound 10-3], the “% Inhibition ratio (10 μM)” value turned out to be 95%.
Regarding `CC(C)N(C)C(=O)Nc1ccc2c(c1)c1c(n2C(C)C)CCCC1` [Compound 5-2], the “% Inhibition ratio (10 μM)” value turned out to be 97%.
On the same count and under the same terms, under `CCCCn1c2c(c3cc(NC(=O)N4CCOCC4)ccc31)CCCC2` [Compound 8-5] stands 85%; under `CC(C)n1c2c(c3cc(NC(=O)N4CCN(C)CC4)ccc31)CCCC2` [Compound 7-19], 75%; under `CC(C)n1c2c(c3cc(NC(=O)N(C)CC(O)CO)ccc31)CCCC2` (centres unmarked) [Compound 5-26], 108%.
For the compound `CC(C)n1c2c(c3cc(NC(=O)N4CCSCC4)ccc31)CCCC2` [Compound 7-15], the “% Inhibition ratio (10 μM)” value was 88%.
As to `CC(C)n1c2c(c3cc(NC(=O)N(C)CCc4ccccn4)ccc31)CCC2` [Compound 10-2], the “% Inhibition ratio (10 μM)” value was determined as 83%.
Still for that read-out and setting: under `CC(C)n1c2c(c3cc(NC(=O)N4CCC(CCO)CC4)ccc31)CCCC2` [Compound 7-12] stands 94%.
On the same count and under the same terms, then `CC(C)n1c2c(c3cc(NC(=O)N4C[C@@H](C)O[C@@H](C)C4)ccc31)CCCC2` [Compound 7-16], with 96%; and `CC(C)n1c2c(c3cc(NC(=O)N(C)CCc4ccccn4)ccc31)CCCC2` [Compound 5-18], with 100%.
Same read-out and setting: then `CC(C)n1c2c(c3cc(NC(=O)N4CCOC(CCO)C4)ccc31)CCCC2` (centres unmarked) [Compound 7-17], with 99%.
Regarding `CC(C)n1c2c(c3cc(NC(=O)N4CCC(N5CCCCC5)CC4)ccc31)CCCC2` [Compound 7-13], the “% Inhibition ratio (10 μM)” value is recorded as 83%.
Consider `CCCCN(C)C(=O)Nc1ccc2c(c1)c1c(n2C(C)C)CCCC1` [Compound 5-3], for which the “% Inhibition ratio (10 μM)” value is 98%.
With `CC(C)n1c2c(c3cc(NC(=O)N(C)CCc4ccncc4)ccc31)CCCCC2` [Compound 11-3], the “% Inhibition ratio (10 μM)” value turned out to be 100%.
Same read-out and setting: then `CC(C)n1c2c(c3cc(NC(=O)N(C)CCSc4nnc[nH]4)ccc31)CCCC2` [Compound 5-23], with 98%; and `CC(C)n1c2c(c3cc(NC(=O)N(C)CC4CCCO4)ccc31)CCCC2` (centres unmarked) [Compound 5-13], with 98%; and `N#CCn1c2c(c3cc(NC(=O)N4CCOCC4)ccc31)CCCC2` [Compound 8-10], with 78%.
`CC(C)n1c2c(c3cc(NC(=O)N4CCC(O)CC4)ccc31)CCCC2` [Compound 7-7]: the “% Inhibition ratio (10 μM)” value was 97%.
On the same count and under the same terms, then `CC(C)n1c2c(c3cc(NC(=O)N(C)CCN4CCCCC4)ccc31)CCCC2` [Compound 5-14], with 95%.
Turning to `CC(C)n1c2c(c3cc(NC(=O)N4CCSC4)ccc31)CCCC2` [Compound 7-14], the “% Inhibition ratio (10 μM)” value amounted to 96%.
Same read-out and setting: then `CC(C)n1c2c(c3cc(NC(=O)N4CCCCC4CCO)ccc31)CCCC2` (centres unmarked) [Compound 7-11], with 95%; and `CC(C)n1c2c(c3cc(NC(=O)N4CCOCC4)ccc31)CCC2` [Compound 10-4], with 94%.
In the case of `O=C(Nc1ccc2c(c1)c1c(n2CC2CC2)CCCC1)N1CCOCC1` [Compound 8-7], the “% Inhibition ratio (10 μM)” value was determined as 100%.
Consider `CC(C)n1c2c(c3cc(NC(=O)N(C)[C@H]4CC[C@H](O)CC4)ccc31)CCCC2` [Compound 5-12], for which the “% Inhibition ratio (10 μM)” value was determined as 100%.
For `CCn1c2c(c3cc(NC(=O)N4CCOCC4)ccc31)CCCC2` [Compound 8-2], the “% Inhibition ratio (10 μM)” value was determined as 95%.
With `CC(C)Cn1c2c(c3cc(NC(=O)N4CCOCC4)ccc31)CCCC2` [Compound 8-6], the “% Inhibition ratio (10 μM)” value was 100%.
On the same count and under the same terms, then `CC(C)n1c2c(c3cc(NC(=O)N(C)CCN4CCOCC4)ccc31)CCCC2` [Compound 5-16], with 86%.
